Experimental findings from PubChem BioAssay (NCI) are described below.

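A five-concentration, 48-hour dose response in 96-well plates underlies each endpoint, interpolated linearly between surrounding concentrations. The concentration for full growth arrest is given as TGI.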

Holding throughout (assay): inhibition of tumour cell growth, NCI panel, 48 h
In experiment [1] the test system is ACHN renal.
Experiment [2] relates to CAKI-1 renal.
For experiment [3], the system named is HCT-15 colon.
In experiment [4] the test system is HOP-62 NSCLC.
Experiment [5] deals with K-562 leukemia.
In experiment [6] the test system is KM12 colon.
Experiment [7] has as its system MALME-3M melanoma.
In experiment [8] the test system is MDA-MB-435.
Experiment [9] relates to MOLT-4 leukemia.
Experiment [10] has as its system NCI-H460 lung.
For experiment [11], the system named is NCI/ADR-RES ovarian.
The test system of experiment [12] is RPMI-8226 leukemia.
Experiment [13] concerns RXF 393 renal.
Experiment [14] relates to SK-MEL-2 melanoma.
Experiment [15] has as its system SK-OV-3 ovarian.
The subject of experiment [16] is SN12C renal.
Experiment [17] concerns SNB-19 CNS.
Experiment [18] has as its system SW-620 colon.
The subject of experiment [19] is SK-MEL-28 melanoma.

For the compound `O=[N+]([O-])c1ccc(C2Nn3c(nnc3-c3cccc([N+](=O)[O-])c3)S2)cc1` (stereo unspecified), the TGI in experiment [1], in experiment [2], in experiment [3], in [4], in [5] and in experiment [6] was above 100 µM each time. For the same compound, the TGI in [7], in [8], in experiment [9], in [10], in [11] and in experiment [12] was above 100 µM throughout. Besides, the TGI in experiment [13], in experiment [14], in experiment [15], in experiment [16], in [17] and in experiment [18] was above 100 µM throughout.

Consider `CC(NC1=NCCO1)c1ccsc1` (stereo unspecified), for which the TGI in [1] is above 100 µM; in [2] it was above 100 µM; in experiment [3], above 100 µM; in [5], 68 µM; in experiment [6], 36.1 µM; in experiment [7], 58 µM. Besides, the TGI is 43.1 µM in [8]; 52.3 µM in [9]; 33.2 µM in [10]; above 100 µM in experiment [11]; 59.9 µM in [12]; 85.8 µM in experiment [13]. For the same compound, the TGI in [14] is 50.2 µM; in experiment [19], 43 µM; in experiment [15], above 100 µM; in experiment [17], above 100 µM; in experiment [18] it was 43.9 µM.

Turning to `O=C(Cc1csc2[n+]1C(=O)/C(=C/c1ccc(Cl)cc1)S2)Nc1ccccc1`, the TGI in [1] was 61.6 µM; in experiment [2], above 100 µM; in [3], 90.6 µM; in experiment [4] it was 30.4 µM; in [5] it was above 100 µM; in experiment [6], 82.8 µM. Besides, the TGI in [7] was 90.6 µM; in experiment [8], 95 µM; in experiment [10], 48.8 µM; in experiment [11] it was 82.4 µM; in [12] it was above 100 µM; in [13] it was 42.6 µM. Further, the TGI in [14] is 37 µM; in experiment [19], above 100 µM; in [15], 99.5 µM; in [16], above 100 µM; in [17], above 100 µM; in experiment [18], above 100 µM.

With `CC(=O)O[C@H]1[C@@H](OC2CCCC2(c2ccccc2)c2ccccc2)O[N+]([O-])=C[C@@H]1c1ccccc1` (stereo partly specified), the TGI in experiment [1] is 12.5 µM; in experiment [2], 11 µM; in experiment [3], 16.7 µM; in experiment [4], 38.2 µM; in experiment [5], above 32.9 µM; in experiment [6], 23.4 µM. Also, the TGI was found to be 11.3 µM in [8]; 7.54 µM in experiment [9]; 60.2 µM in experiment [10]; 12.9 µM in [11]; 18.9 µM in experiment [12]; 8.48 µM in experiment [13]. Also, the TGI in experiment [14] amounted to 24.1 µM; in experiment [19], 8.65 µM; in experiment [15], 29 µM; in [16], 16.9 µM; in experiment [17] it was 29.7 µM; in [18], 17.6 µM.

As to `Cc1ccc(NC(=O)CC(=O)N2N=C(N(c3ccccc3)c3ccccc3)CC2c2ccccc2)cc1` (stereo unspecified), the TGI in [1], in experiment [2], in experiment [3], in [4], in [5] and in experiment [6] was above 100 µM in each case. In addition, the TGI in [8], in experiment [9], in [10], in [11], in experiment [12] and in [13] was above 100 µM throughout. Also, the TGI in experiment [14], in experiment [19], in experiment [15], in experiment [17] and in experiment [18] was above 100 µM in each case.

Take `CNc1ccc(C)cc1S(=O)(=O)c1ccccc1[N+](=O)[O-]`: the TGI in experiment [1], in experiment [3], in experiment [4], in experiment [5], in [6] and in experiment [7] was above 100 µM each time. The TGI in experiment [8], in [9], in experiment [10], in experiment [11], in experiment [12] and in experiment [13] was above 100 µM in each case. In addition, the TGI in [14], in [19], in experiment [15], in [16], in [17] and in experiment [18] was above 100 µM throughout.

For the compound `C=C(C)C1Cc2c(cc3c(c2O)c(=O)c2ccccc2n3C)O1` (stereo unspecified), the TGI in experiment [1] was 35.7 µM; in experiment [2], 11.2 µM; in experiment [3], 9.93 µM; in experiment [4] it was 25.2 µM; in [6], 5.75 µM; in experiment [7], 3.41 µM. The TGI in experiment [8] is 20.7 µM; in experiment [9], 1.99 µM; in experiment [10], 19 µM; in experiment [11] it was 8.19 µM; in experiment [12], 9.72 µM; in experiment [13], 8.52 µM. In addition, the TGI turned out to be 26.7 µM in experiment [14]; 24.9 µM in [19]; 13.5 µM in experiment [15]; 7.52 µM in experiment [16]; 12 µM in [17]; 5.68 µM in experiment [18].

With `O=C(Oc1ccc(C(c2c(O)c3ccccc3oc2=O)c2c(O)c3ccccc3oc2=O)cc1)c1ccc(C(=O)c2ccccc2)cc1`, the TGI in experiment [1] turned out to be 40.3 µM; in experiment [2], 57.4 µM; in [3], 89.4 µM; in experiment [4] it was 69.9 µM; in [5] it was 47.9 µM; in experiment [6] it was 30.8 µM. Besides, the TGI in experiment [8] was found to be 42.3 µM; in experiment [9], 41.3 µM; in experiment [10], 45.6 µM; in experiment [11] it was 34.8 µM; in [12] it was 56.5 µM; in experiment [13] it was 83.6 µM. The TGI in experiment [14] was 35.2 µM; in experiment [19], 36.5 µM; in experiment [15], 33.4 µM; in [16], above 100 µM; in [17], 37.2 µM; in experiment [18], above 100 µM.

Consider `O=C1CC(=O)NC(=NN2C(=O)CSC2c2ccc(Cl)cc2)N1` (stereo unspecified), for which the TGI in [1] is above 100 µM; in experiment [2], above 100 µM; in experiment [3] it was above 100 µM; in [4], 60.9 µM; in [5], above 100 µM; in experiment [6], above 100 µM. Moreover, the TGI in experiment [7], in [8], in experiment [9], in experiment [10], in [11] and in [12] was above 100 µM throughout. The TGI in experiment [13] was above 100 µM; in [14] it was above 100 µM; in experiment [19], above 100 µM; in [15], above 100 µM; in experiment [16], 47.6 µM; in experiment [18], above 100 µM.

For `c1ccc(CN2C3C4N(Cc5ccccc5)C2C2N(Cc5ccccc5)C(C(N2Cc2ccccc2)N4Cc2ccccc2)N3Cc2ccccc2)cc1`, the TGI in experiment [1], in experiment [2], in experiment [3], in [4], in [5] and in experiment [6] was above 100 µM each time. The TGI in experiment [8], in experiment [9], in experiment [11], in experiment [12], in [13] and in [14] was above 100 µM each time. Further, the TGI in experiment [19], in experiment [15], in experiment [16] and in experiment [18] was above 100 µM in each case.

In the case of `O=S(=O)(Cc1ccccc1)c1nnc(S(=O)(=O)c2ccc(Cl)cc2)s1`, the TGI in experiment [1] was 36.4 µM; in experiment [2], 54 µM; in [3], 39.8 µM; in [4], 47.3 µM; in experiment [5], above 100 µM; in experiment [6], above 100 µM. Moreover, the TGI in [8] is 90.6 µM; in experiment [9], above 100 µM; in [10], 48.2 µM; in experiment [11], 77.9 µM; in experiment [12], 61.9 µM; in experiment [13], 33.8 µM. The TGI in experiment [14] came out at 50.7 µM; in experiment [19], 44 µM; in experiment [15] it was 47.8 µM; in [16], 46.7 µM; in experiment [17] it was 60.2 µM; in [18] it was 64.1 µM.

Take `COC(=O)C1=C(C)NC(CF)=C(C(=O)OC)C1c1cccc2c(=O)c3ccccc3oc12` (stereo unspecified): the TGI in experiment [1] is above 100 µM; in experiment [2] it was 62.3 µM; in [3], above 100 µM; in [4] it was above 100 µM; in experiment [5], above 100 µM; in experiment [6] it was above 100 µM. For the same compound, the TGI in [7] is 83.6 µM; in [8] it was above 100 µM; in [9], above 100 µM; in experiment [10] it was above 100 µM; in [11], 27.8 µM; in experiment [12], above 100 µM. Further, the TGI in [13], in experiment [14], in [19], in experiment [15], in [16] and in [18] was above 100 µM each time.

For `CC1=C(C)C2(C#N)C(=O)N3C(=NC(c4ccco4)NC3c3ccco3)C2(C#N)C(c2ccco2)N1` (stereo unspecified), the TGI in experiment [1], in experiment [2], in experiment [3], in experiment [4], in [6] and in experiment [7] was above 100 µM each time. Moreover, the TGI in experiment [8], in [9], in [10], in experiment [11], in experiment [12] and in experiment [13] was above 100 µM each time. Besides, the TGI in [14], in [19], in [15], in [16], in [17] and in experiment [18] was above 100 µM throughout.

Consider `COC1=CC(=O)C2=C(C1=O)[C@H]1CC[C@]3(C)C(=O)CC[C@H]3[C@@H]1CC2`, for which the TGI is 79.3 µM in experiment [1]; 77 µM in experiment [2]; above 100 µM in [3]; above 100 µM in experiment [4]; above 100 µM in experiment [5]; above 100 µM in [6]. For the same compound, the TGI in [8] is 45.6 µM; in experiment [9], above 100 µM; in experiment [10] it was above 100 µM; in experiment [11], above 100 µM; in [12] it was 81.3 µM; in [13], 67.8 µM. Also, the TGI in experiment [14] is 36.3 µM; in experiment [19], above 100 µM; in [15], above 100 µM; in experiment [16], 44.5 µM; in [17] it was above 100 µM; in experiment [18], 67.7 µM.

Regarding `Cc1cccc2c(N)c3cccc(C(=O)NCCNCCN)c3nc12`, the TGI in [1] was above 100 µM; in experiment [2], 79.9 µM; in experiment [3], above 100 µM; in experiment [4], above 46.3 µM; in experiment [5], above 100 µM; in experiment [6], above 100 µM. Moreover, the TGI in experiment [7] was 36.2 µM; in experiment [8], above 78.8 µM; in [9] it was above 96.1 µM; in [10], 19.8 µM; in [11], above 100 µM; in [12], above 90.1 µM. Besides, the TGI in experiment [13] was 36.1 µM; in [14], 28.5 µM; in experiment [19], 36 µM; in experiment [15], above 100 µM; in experiment [17] it was 33.8 µM; in [18] it was above 100 µM.
